In PubChem BioAssay (NCI):
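All cell lines were grown in 96-well plates and treated with compound for 48 hours. GI50 marks 50% less growth. TGI marks complete inhibition of growth.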

Assays:
Test in all cases: growth of human tumour cells (NCI), 48 h
PC-3 prostate = tested on: PC-3 prostate
HCT-116 colon = tested on: HCT-116 colon
BT-549 breast = tested on: BT-549 breast
K-562 leukemia = tested on: K-562 leukemia
SNB-19 CNS = tested on: SNB-19 CNS
HCC-2998 colon = tested on: HCC-2998 colon
HCT-15 colon = tested on: HCT-15 colon
HL-60(TB) leukemia = tested on: HL-60(TB) leukemia
RPMI-8226 leukemia = tested on: RPMI-8226 leukemia
NCI/ADR-RES ovarian = tested on: NCI/ADR-RES ovarian
UACC-257 melanoma = tested on: UACC-257 melanoma
OVCAR-3 ovarian = tested on: OVCAR-3 ovarian
SW-620 colon = tested on: SW-620 colon
SK-MEL-5 melanoma = tested on: SK-MEL-5 melanoma
LOX IMVI melanoma = tested on: LOX IMVI melanoma
DU-145 prostate = tested on: DU-145 prostate
A498 renal = tested on: A498 renal
SF-268 CNS = tested on: SF-268 CNS
ACHN renal = tested on: ACHN renal
MCF7 breast = tested on: MCF7 breast
UACC-62 melanoma = tested on: UACC-62 melanoma
HS 578T breast = tested on: HS 578T breast
A549 NSCLC = tested on: A549 NSCLC
SN12C renal = tested on: SN12C renal
NCI-H522 lung = tested on: NCI-H522 lung
MDA-MB-435 = tested on: MDA-MB-435
OVCAR-8 ovarian = tested on: OVCAR-8 ovarian
T-47D breast = tested on: T-47D breast
UO-31 renal = tested on: UO-31 renal
786-0 renal = tested on: 786-0 renal
U251 CNS = tested on: U251 CNS
SNB-75 CNS = tested on: SNB-75 CNS
IGROV1 ovarian = tested on: IGROV1 ovarian
NCI-H23 lung = tested on: NCI-H23 lung
COLO 205 colon = tested on: COLO 205 colon
OVCAR-4 ovarian = tested on: OVCAR-4 ovarian
SF-295 CNS = tested on: SF-295 CNS
CAKI-1 renal = tested on: CAKI-1 renal
NCI-H226 lung = tested on: NCI-H226 lung
HOP-92 NSCLC = tested on: HOP-92 NSCLC
MDA-MB-231 breast = tested on: MDA-MB-231 breast
HT29 colon = tested on: HT29 colon
CCRF-CEM leukemia = tested on: CCRF-CEM leukemia
MALME-3M melanoma = tested on: MALME-3M melanoma
KM12 colon = tested on: KM12 colon
RXF 393 renal = tested on: RXF 393 renal
TK-10 renal = tested on: TK-10 renal
HOP-62 NSCLC = tested on: HOP-62 NSCLC
M14 melanoma = tested on: M14 melanoma
NCI-H460 lung = tested on: NCI-H460 lung
MOLT-4 leukemia = tested on: MOLT-4 leukemia
SF-539 CNS = tested on: SF-539 CNS
SR leukemia = tested on: SR leukemia
OVCAR-5 ovarian = tested on: OVCAR-5 ovarian
SK-OV-3 ovarian = tested on: SK-OV-3 ovarian
SK-MEL-28 melanoma = tested on: SK-MEL-28 melanoma

Question: With `Cc1cc(Nc2nc(-c3cccnc3)nc3ccccc23)n[nH]1` as the compound, how does the GI50 (PC-3 prostate) read?
Answer: 1.85 µM

Question: And the TGI (PC-3 prostate)?
Answer: > 100 µM

Question: What about the GI50 (HCT-116 colon) of the same compound?
Answer: 0.494 µM

Question: What about the TGI (HCT-116 colon) of the same compound?
Answer: > 100 µM

Question: What about the GI50 (BT-549 breast) of the same compound?
Answer: 4.24 µM

Question: What about the TGI (BT-549 breast) of the same compound?
Answer: > 100 µM

Question: What about the GI50 (K-562 leukemia) of the same compound?
Answer: 3.07 µM

Question: What about the TGI (K-562 leukemia) of the same compound?
Answer: > 100 µM

Question: And the GI50 (SNB-19 CNS)?
Answer: 5.98 µM

Question: What about the TGI (SNB-19 CNS) of the same compound?
Answer: > 100 µM

Question: And the GI50 (HCC-2998 colon)?
Answer: 21.5 µM

Question: And the TGI (HCC-2998 colon)?
Answer: > 100 µM

Question: What about the GI50 (HCT-15 colon) of the same compound?
Answer: 0.512 µM

Question: And the TGI (HCT-15 colon)?
Answer: > 100 µM

Question: What about the GI50 (HL-60(TB) leukemia) of the same compound?
Answer: 3.27 µM

Question: And the TGI (HL-60(TB) leukemia)?
Answer: 49 µM

Question: What about the GI50 (RPMI-8226 leukemia) of the same compound?
Answer: > 38.5 µM

Question: And the TGI (RPMI-8226 leukemia)?
Answer: > 95.1 µM

Question: What about the GI50 (NCI/ADR-RES ovarian) of the same compound?
Answer: 5.13 µM

Question: What about the TGI (NCI/ADR-RES ovarian) of the same compound?
Answer: > 92.7 µM

Question: What about the GI50 (UACC-257 melanoma) of the same compound?
Answer: 42.2 µM

Question: And the TGI (UACC-257 melanoma)?
Answer: > 100 µM

Question: What about the GI50 (OVCAR-3 ovarian) of the same compound?
Answer: 3.74 µM

Question: What about the TGI (OVCAR-3 ovarian) of the same compound?
Answer: > 100 µM

Question: And the GI50 (SW-620 colon)?
Answer: 1.09 µM

Question: And the TGI (SW-620 colon)?
Answer: > 100 µM

Question: And the GI50 (SK-MEL-5 melanoma)?
Answer: 4 µM

Question: And the TGI (SK-MEL-5 melanoma)?
Answer: > 63.6 µM

Question: And the GI50 (LOX IMVI melanoma)?
Answer: 0.712 µM

Question: And the TGI (LOX IMVI melanoma)?
Answer: 3.57 µM

Question: And the GI50 (DU-145 prostate)?
Answer: 10.7 µM

Question: What about the TGI (DU-145 prostate) of the same compound?
Answer: > 100 µM

Question: What about the GI50 (A498 renal) of the same compound?
Answer: 0.183 µM

Question: What about the TGI (A498 renal) of the same compound?
Answer: 0.985 µM

Question: And the GI50 (SF-268 CNS)?
Answer: 2.47 µM

Question: What about the TGI (SF-268 CNS) of the same compound?
Answer: > 67.2 µM

Question: What about the GI50 (ACHN renal) of the same compound?
Answer: 0.527 µM

Question: What about the TGI (ACHN renal) of the same compound?
Answer: > 100 µM

Question: What about the GI50 (MCF7 breast) of the same compound?
Answer: 1.28 µM

Question: And the TGI (MCF7 breast)?
Answer: > 100 µM

Question: What about the GI50 (UACC-62 melanoma) of the same compound?
Answer: 0.943 µM

Question: What about the TGI (UACC-62 melanoma) of the same compound?
Answer: 35.6 µM

Question: What about the GI50 (HS 578T breast) of the same compound?
Answer: 0.364 µM

Question: What about the TGI (HS 578T breast) of the same compound?
Answer: 3.74 µM

Question: What about the GI50 (A549 NSCLC) of the same compound?
Answer: 0.672 µM

Question: And the TGI (A549 NSCLC)?
Answer: > 100 µM

Question: And the GI50 (SN12C renal)?
Answer: 3.21 µM

Question: What about the TGI (SN12C renal) of the same compound?
Answer: > 100 µM

Question: And the GI50 (NCI-H522 lung)?
Answer: 1.69 µM

Question: What about the TGI (NCI-H522 lung) of the same compound?
Answer: > 100 µM

Question: What about the GI50 (MDA-MB-435) of the same compound?
Answer: 0.647 µM

Question: And the TGI (MDA-MB-435)?
Answer: > 100 µM

Question: And the GI50 (OVCAR-8 ovarian)?
Answer: 9.55 µM

Question: What about the TGI (OVCAR-8 ovarian) of the same compound?
Answer: > 100 µM

Question: What about the GI50 (T-47D breast) of the same compound?
Answer: 2.02 µM

Question: And the TGI (T-47D breast)?
Answer: > 75.4 µM

Question: What about the GI50 (UO-31 renal) of the same compound?
Answer: 0.443 µM

Question: And the TGI (UO-31 renal)?
Answer: > 100 µM

Question: What about the GI50 (786-0 renal) of the same compound?
Answer: 1.31 µM

Question: And the TGI (786-0 renal)?
Answer: > 100 µM

Question: What about the GI50 (U251 CNS) of the same compound?
Answer: 1.25 µM

Question: And the TGI (U251 CNS)?
Answer: > 53.1 µM

Question: And the GI50 (SNB-75 CNS)?
Answer: 0.3 µM

Question: What about the TGI (SNB-75 CNS) of the same compound?
Answer: 2.18 µM

Question: And the GI50 (IGROV1 ovarian)?
Answer: 1.2 µM

Question: What about the TGI (IGROV1 ovarian) of the same compound?
Answer: > 40.6 µM

Question: What about the GI50 (NCI-H23 lung) of the same compound?
Answer: 5.16 µM

Question: And the TGI (NCI-H23 lung)?
Answer: > 100 µM

Question: And the GI50 (COLO 205 colon)?
Answer: 1.07 µM

Question: And the TGI (COLO 205 colon)?
Answer: 3.74 µM

Question: And the GI50 (OVCAR-4 ovarian)?
Answer: 2.05 µM

Question: What about the TGI (OVCAR-4 ovarian) of the same compound?
Answer: > 100 µM

Question: And the GI50 (SF-295 CNS)?
Answer: 2.72 µM

Question: And the TGI (SF-295 CNS)?
Answer: > 100 µM

Question: And the GI50 (CAKI-1 renal)?
Answer: 0.325 µM

Question: What about the GI50 (NCI-H226 lung) of the same compound?
Answer: 1.39 µM

Question: And the TGI (NCI-H226 lung)?
Answer: > 24.2 µM

Question: What about the GI50 (HOP-92 NSCLC) of the same compound?
Answer: 1.62 µM

Question: What about the TGI (HOP-92 NSCLC) of the same compound?
Answer: 6.63 µM

Question: And the GI50 (MDA-MB-231 breast)?
Answer: 17.3 µM

Question: What about the TGI (MDA-MB-231 breast) of the same compound?
Answer: > 100 µM

Question: What about the GI50 (HT29 colon) of the same compound?
Answer: 1.57 µM

Question: What about the TGI (HT29 colon) of the same compound?
Answer: 11.8 µM

Question: What about the GI50 (CCRF-CEM leukemia) of the same compound?
Answer: 4.83 µM

Question: What about the TGI (CCRF-CEM leukemia) of the same compound?
Answer: > 100 µM

Question: And the GI50 (MALME-3M melanoma)?
Answer: > 100 µM

Question: What about the TGI (MALME-3M melanoma) of the same compound?
Answer: > 100 µM

Question: And the GI50 (KM12 colon)?
Answer: 0.206 µM

Question: What about the TGI (KM12 colon) of the same compound?
Answer: 99.1 µM

Question: And the GI50 (RXF 393 renal)?
Answer: 0.388 µM

Question: And the TGI (RXF 393 renal)?
Answer: 2.52 µM

Question: And the GI50 (TK-10 renal)?
Answer: 0.607 µM

Question: What about the TGI (TK-10 renal) of the same compound?
Answer: 99.1 µM

Question: And the GI50 (HOP-62 NSCLC)?
Answer: 2.68 µM

Question: And the TGI (HOP-62 NSCLC)?
Answer: > 89.8 µM

Question: And the GI50 (M14 melanoma)?
Answer: 2.33 µM

Question: What about the TGI (M14 melanoma) of the same compound?
Answer: > 100 µM

Question: And the GI50 (NCI-H460 lung)?
Answer: 1.84 µM

Question: And the TGI (NCI-H460 lung)?
Answer: > 100 µM

Question: And the GI50 (MOLT-4 leukemia)?
Answer: > 57.2 µM

Question: What about the TGI (MOLT-4 leukemia) of the same compound?
Answer: > 100 µM

Question: What about the GI50 (SF-539 CNS) of the same compound?
Answer: 1.82 µM

Question: What about the TGI (SF-539 CNS) of the same compound?
Answer: 7.99 µM

Question: And the GI50 (SR leukemia)?
Answer: 0.481 µM

Question: What about the TGI (SR leukemia) of the same compound?
Answer: > 38.5 µM

Question: And the GI50 (OVCAR-5 ovarian)?
Answer: 7.77 µM

Question: What about the TGI (OVCAR-5 ovarian) of the same compound?
Answer: > 100 µM

Question: What about the GI50 (SK-OV-3 ovarian) of the same compound?
Answer: 0.956 µM

Question: And the TGI (SK-OV-3 ovarian)?
Answer: > 100 µM

Question: And the GI50 (SK-MEL-28 melanoma)?
Answer: 10.1 µM

Question: And the TGI (SK-MEL-28 melanoma)?
Answer: > 100 µM
